Results reported in PubChem BioAssay (NCI).
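Protocol summary: plate cells (96-well), add compound at 5 concentrations, incubate 48 h, interpolate endpoints linearly. Here, GI50 denotes the concentration required for 50% inhibition of growth. TGI denotes the concentration required for complete inhibition of growth.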

Experiments:
Assay in all cases: NCI-60 cell line screen, 48 h
HCT-15 colon = system: HCT-15 colon
HCT-116 colon = system: HCT-116 colon
HOP-62 NSCLC = system: HOP-62 NSCLC
CCRF-CEM leukemia = system: CCRF-CEM leukemia
U251 CNS = system: U251 CNS
OVCAR-4 ovarian = system: OVCAR-4 ovarian
UO-31 renal = system: UO-31 renal
UACC-62 melanoma = system: UACC-62 melanoma
SNB-75 CNS = system: SNB-75 CNS
ACHN renal = system: ACHN renal

Row | Compound | TGI (HCT-15 colon) | TGI (HCT-116 colon) | TGI (HOP-62 NSCLC) | TGI (CCRF-CEM leukemia) | TGI (U251 CNS) | TGI (OVCAR-4 ovarian) | TGI (UO-31 renal) | TGI (UACC-62 melanoma) | TGI (SNB-75 CNS) | GI50 (HCT-15 colon) | GI50 (HCT-116 colon) | GI50 (ACHN renal) | TGI (ACHN renal) | GI50 (HOP-62 NSCLC) | GI50 (CCRF-CEM leukemia) | GI50 (U251 CNS) | GI50 (OVCAR-4 ovarian) | GI50 (UO-31 renal) | GI50 (UACC-62 melanoma) | GI50 (SNB-75 CNS)
1 | CC(=O)Oc1ccccc1[C@H]1CC(=O)C[C@H](c2ccccc2OC(C)=O)C12C(=O)c1ccccc1C2=O | > 100 µM | 88.9 µM | > 100 µM | > 100 µM | > 100 µM | > 100 µM | > 100 µM | 30.9 µM | > 100 µM |  |  |  |  |  |  |  |  |  |  | 
2 | O=C(c1ccccc1)c1nn(-c2ccc(Cl)cc2)c2nc3nc(-c4ccccc4)cc(=O)n3nc12 | > 100 µM | 52.2 µM | > 100 µM | > 100 µM | > 100 µM | > 100 µM | > 100 µM | 41.9 µM | 97.9 µM | 38.2 µM | 19.9 µM | 37.4 µM | > 100 µM | 32.3 µM | 3.58 µM | 31.5 µM | 39.9 µM | 25.7 µM | 19.8 µM | 28.8 µM
3 | COc1cc2cc(Oc3ccc(NC(=O)Nc4ccc(F)c(C(F)(F)F)c4)cc3)c(C)nc2cc1OCCN1CCCCC1 |  |  |  | 4.01 µM |  | 3.13 µM | 2.73 µM | 3.19 µM | 2.6 µM |  |  | 1.65 µM | 3.01 µM |  | 1.57 µM |  | 1.6 µM | 1.41 µM | 1.71 µM | 1.33 µM
4 | CCOC(=O)c1c(O)[nH]c(=O)c(CC)c1C | > 100 µM | > 100 µM | > 100 µM | > 100 µM | > 100 µM | > 100 µM | > 100 µM | > 100 µM | > 100 µM |  |  |  | > 100 µM |  |  |  |  |  |  | 
5 | CN(C)CCN1C(=O)CC[C@@]2(C)C1=CC[C@@H]1[C@@H]2CC[C@@]2(C)[C@H]1CC[C@]2(C)O | > 100 µM | > 100 µM | > 100 µM | > 100 µM | > 100 µM | > 100 µM | > 100 µM | > 100 µM | > 100 µM |  |  |  | > 100 µM |  |  |  |  |  |  | 
6 | CCOC(=O)c1ncoc1[C@H]1COC(C)(C)O1 | > 100 µM | > 100 µM | > 100 µM | > 100 µM | > 100 µM | > 100 µM | > 100 µM | > 100 µM | > 100 µM |  |  |  | > 100 µM |  |  |  |  |  |  | 
7 | O=C(O)C(CS)NCc1c2ccccc2[n+]([O-])c2ccccc12 (stereo unspecified) | > 100 µM | 62.4 µM | > 100 µM | 80.8 µM | > 100 µM | 86.6 µM | 66.3 µM | > 100 µM | > 100 µM |  |  |  | > 100 µM |  |  |  |  |  |  | 
